Results on seven compounds are retold here after patent US20250320205A1, “STAT6 DEGRADERS” (Gilead Sciences, Inc., priority 2024, published 2025).

For one assay, the target named is T1, STAT6 (Homo sapiens, UniProt P42226).
T1 construct: These cells express endogenous STAT6; host or cells: HeLa LgBiT clone 4.14 (CRISPR knock-in of HiBiT into the endogenous STAT6 gene)
T1 sequence (P42226 1-847): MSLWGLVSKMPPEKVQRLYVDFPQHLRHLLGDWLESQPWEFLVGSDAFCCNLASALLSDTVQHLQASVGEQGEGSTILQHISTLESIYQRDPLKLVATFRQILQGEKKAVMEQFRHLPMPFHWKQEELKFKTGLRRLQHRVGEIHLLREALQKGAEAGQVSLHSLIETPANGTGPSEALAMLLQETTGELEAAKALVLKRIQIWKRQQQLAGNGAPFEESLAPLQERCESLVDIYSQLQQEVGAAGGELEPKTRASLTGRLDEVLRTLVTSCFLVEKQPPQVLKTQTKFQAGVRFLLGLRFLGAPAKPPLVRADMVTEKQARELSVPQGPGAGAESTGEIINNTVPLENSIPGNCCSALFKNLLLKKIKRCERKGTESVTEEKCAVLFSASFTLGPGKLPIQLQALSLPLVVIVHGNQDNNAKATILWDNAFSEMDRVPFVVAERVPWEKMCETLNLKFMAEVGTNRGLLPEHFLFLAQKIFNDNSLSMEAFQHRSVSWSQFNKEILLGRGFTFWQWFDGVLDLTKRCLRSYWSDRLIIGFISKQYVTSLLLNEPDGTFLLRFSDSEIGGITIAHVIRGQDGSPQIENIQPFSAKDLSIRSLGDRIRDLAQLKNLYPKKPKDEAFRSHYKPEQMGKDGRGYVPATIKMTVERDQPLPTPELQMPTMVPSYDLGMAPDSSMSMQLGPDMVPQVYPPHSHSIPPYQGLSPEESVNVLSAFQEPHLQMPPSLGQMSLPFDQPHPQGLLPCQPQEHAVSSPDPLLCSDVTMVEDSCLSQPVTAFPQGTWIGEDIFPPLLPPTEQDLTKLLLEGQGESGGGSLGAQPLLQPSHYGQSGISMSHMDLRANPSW
Briefly: STAT6 Degrader Assay (HiBiT based, HeLa LgBiT clone 4.14 cells). Type of assay: cell-based. To be noted: geometric mean across assay runs and compound batches; DC50 provided for test compounds with >80% Emax; read-out: STAT6 degradation DC50. The method in brief: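 DC50 (nM) comes from NanoBiT luminescence of HiBiT-knock-in STAT6 in HeLa LgBiT clone 4.14 cells, treated 4-24 h at 37° C. Luminescence reflects non-degraded STAT6, with 50 μM terfenadine wells taken as full degradation.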
In general terms: The HiBiT peptide binds its large partner to form an active luciferase.

The test system of assay [1] is Eotaxin-3 (CCL26) release. Briefly: Human Whole Blood Eotaxin-3 Assay (IL-4 stimulated). The format is cell-based. As to conditions: Homo sapiens; geometric mean across assay runs and compound batches; EC50 provided for test compounds with >80% Emax. The procedure, abridged:
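Lithium-heparin human whole blood preincubated 2 h at 37 °C with compounds (4-fold dilutions, triplicate, 0.5% DMSO final). Then stimulated with 400 pM final recombinant human IL-4 for 48 h. Eotaxin-3 in supernatant quantified by MSD immunoassay.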

What is called DC50 is the concentration giving 50% degradation. One may read the EC50 as the midpoint of the concentration-response curve. Take `CNc1cc(=O)n(-c2ccnc3c2cc([C@H](C)N2CC=C(c4c(C)cc(C(=O)N5CCn6nc(CN7CCC(c8ccc(N[C@@H]9CCC(=O)NC9=O)c(OC)c8)CC7)cc6C5)cc4F)CC2)n3C)cc1F` (single isomer, unassigned) [Example 2g12]: the DC50 on STAT6 was found to be 0.0007 µM. In assay [1], this compound returned an EC50 of 0.0005 µM.
As to `CNc1cc(=O)n(-c2ccnc3c2cc(CN2CC=C(c4c(F)cc(C(=O)N5CCC(CN6CCN(c7ccc(NC8CCC(=O)NC8=O)cc7F)CC6)CC5)cc4F)CC2)n3C)cc1F` (centres unmarked) [Example 2g65, 3-((4-(4-((1-(3,5-difluoro-4-(1-((4-(5-fluoro-4-(methyl-amino)-2-oxopyridin-1(2H)-yl)-1-methyl-1H-pyrrolo[2,3-b]pyridin-2-yl)methyl)-1,2,3,6-tetrahydropyridin-4-yl)benzoyl)piperidin-4-yl)-methyl)piperazin-1-yl)-3-fluorophenyl)amino)piperi-dine-2,6-dione], the DC50 at STAT6 was 0.12 µM. The midpoint of the response in assay [1], the EC50, lay at 0.408 µM.
For `CNc1ccn(-c2ccnc3c2cc([C@H](C)N2CC=C(c4c(C)cc(C(=O)N5CCC(CN6CCN(c7ccc(NC8CCC(=O)NC8=O)cc7F)C[C@@H]6C)CC5)cc4F)CC2)n3C)c(=O)c1` (stereo partly drawn) [Example 2g97, 3-((3-fluoro-4-((S)-4-((1-(3-fluoro-5-methyl-4-(1-((S)-1-(1-methyl-4-(4-(methyl-amino)-2-oxopyridin-1(2H)-yl)-1H-pyrrolo[2,3-b]pyridin-2-yl)ethyl)-1,2,3,6-tetrahydro-pyridin-4-yl)benzoyl)piperi-din-4-yl)methyl)-3-methyl-piperazin-1-yl)phenyl)amino)-piperidine-2,6-dione], in that order: 0.0208 µM and 0.0367 µM.
For `CNc1ccn(-c2ccnc3c2cc([C@H](C)N2CC=C(c4c(F)cc(C(=O)N5CCC(CN6CCN(c7ccc(NC8CCC(=O)NC8=O)cc7F)CC6)CC5)cc4F)CC2)n3C)c(=O)c1` (stereo partly drawn) [Example 2g104, 3-((4-(4-((1-(3,5-difluoro-4-(1-((S)-1-(1-methyl-4-(4-(methylamino)-2-oxopyridin-1(2H)-yl)-1H-pyrrolo[2,3-b]pyridin-2-yl)ethyl)-1,2,3,6-tetrahydropyridin-4-yl)benzo-yl)piperidin-4-yl)methyl)-piperazin-1-yl)-3-fluorophen-yl)amino)piperidine-2,6-dione] the same measures were 0.0038 µM and 0.009 µM.
For `CNc1cc(=O)n(-c2ccnc3c2cc([C@H](C)N2CC=C(c4c(F)cc(C(=O)N5CCC(CN6CCN(c7ccc(N[C@H]8CCC(=O)NC8=O)cc7F)CC6)CC5)cc4F)CC2)n3C)cc1F` (single isomer, unassigned) [Example 2g120], in that order: 0.0094 µM and 0.0365 µM.
`CNc1ccn(-c2ccnc3c2cc([C@H](C)N2CC=C(c4c(C)cc(C(=O)N5CCC(CN6CCN(Cc7ccc(NC8CCC(=O)NC8=O)c(F)c7)CC6)CC5)cc4F)CC2)n3C)c(=O)c1` (stereo partly drawn) [Example 2g10, 3-((2-fluoro-4-((4-((1-(3-fluoro-5-methyl-4-(1-((S)-1-(1-methyl-4-(4-(methyl-amino)-2-oxopyridin-1(2H)-yl)-1H-pyrrolo[2,3-b]pyridin-2-yl)ethyl)-1,2,3,6-tetrahydro-pyridin-4-yl)benzoyl)-piper-idin-4-yl)methyl)piperazin-1-yl)methyl)phenyl)amino)-piperidine-2,6-dione]: on STAT6, the DC50 is 0.0114 µM. The same compound came in with an EC50 in assay [1] of 0.0192 µM.
For `CNc1cc(=O)n(-c2ccnc3c2cc(CN2CCC(c4c(F)cc(C(=O)N5CCC(CN6CCN(c7ccc(N[C@@H]8CCC(=O)NC8=O)cc7F)CC6)CC5)cc4F)CC2)n3C)cc1F` (single isomer, unassigned) [Example 2g33], in that order: 0.0508 µM and 0.0647 µM.
